18 molecules from patent US7759392B2, “Pharmaceutical compounds” (Nicox S.A., priority 1999, dated 2010) can be followed below.

Entries after “also recorded” stand apart in the source; their conditions may differ.

In data set [1] the test system is human endothelial cells of the umbilical vein. Briefly: Test 2 (CIP): apoptosis (DNA fragmentation) induced by cumene hydroperoxide in endothelial cells. It is filed as cell-based. Conditions: drug 10^-4 M, CIP 5 mM; for activity at 100 µM: Homo sapiens, Endothelial cell, 1 h, read-out: Apoptosis % with respect to the controls treated only with CIP; for activity at 100 µM / Apoptosis % with respect to the controls treated only with CIP: one hour. On the procedure:
Test 2 (CIP): Protection parameter of endothelial cell against the oxidative stress induced by cumene hydroperoxide (CIP).
Human endothelial cells of the umbilical vein are prepared according to an usual standard procedure. Fresh umbilical veins are filled with a 0.1% by weight collagenase solution and incubated at 37° C. for 5 minutes.
The cells are collected from the perfusate by centrifugation and harvested in culture flasks T-75, pretreated with human fibronectin. The cells are then harvested in the same medium, further added with 10 ng/ml of bovine hypothalamic growth factor. When the cells of the primary cell culture (i.e. that directly obtained from ex-vivo) form a single layer of confluent cells (about 8,000,000 cells/flask), the culture is stopped and the layers washed and trypsinized. The cellular suspensions are transferred into the wells of a cell culture plate having 24 wells, half of which is then additioned with the same culture medium containing the drug at a 10^−4M concentration, and harvested in a thermostat at 37° C. at a constant moisture. Only the cells coming from said first sub-cultures are used for the experiments with cumene hydroperoxide (CIP).
Before starting the test, the cellular culture medium is removed and the cellular layers are carefully washed with a physiologic solution at a temperature of 37° C. The wells of the culture plate are then incubated for one hour with CIP at a 5 mM concentration in the culture medium. […] 5 replicates for each sample are carried out.
Human endothelial cells of the umbilical vein are prepared according to a standard method. Fresh umbilical veins are filled with a collagenase solution 0.1% by weight and incubated at 37° C. for 5 minutes.
The cells are collected from the perfusate by centrifugation at 800 rpm and harvested in culture flasks T-75, pretreated with human fibronectin. Cells are then harvested in the same medium, added with bovine hypothalamic growth factor (100 ng/ml). When the cells of the primary cell culture (the cells directly removed from ex-vivo umbilical vein) form a single layer of confluent cells (about 8,000,000 cells/flask), harvesting is stopped and the layers are washed and trypsinized. The cellular suspensions are transferred into wells of a culture plate having 24 wells, half of said wells being added with the same culture medium containing the drug at a 10^−4M concentration, and harvested in a thermostat at 37° C. at a constant moisture (90%), CO2=5%. When the drug is not soluble in the culture medium, it is formerly dissolved in a small amount of dimethylsulphoxide. The maximum amount of dimethylsulphoxide which can be added to the culture medium is 0.5%. Only the cells coming from these first subcultures are used for the tests with cumene hydroperoxide (CIP).
Before starting the test, the cellular culture medium is removed and the cellular layers are carefully washed with a standard physiologic solution buffered with phosphate 0.1 M pH 7.0, at the temperature of 37° C. The content of each well is then incubated for one hour with a CIP suspension in the culture medium at a 5 mM concentration. Evaluation of the cellular damage (apoptosis) is carried out by determining the percent variation of the DNA fragmentation in the cultures containing the drug+CIP with respect to the controls treated with CIP only. […] The fluorescence of each sample was determined on 5 replicates. Statistic evaluation has been made with t Student test (p<0.01).

Data set [2] has as its system gastrointestinal mucosa, liver (GPT), vascular endothelium (blood pressure). Conditions: rat, in vivo; for Gastroenteropathy % without L-NAME: 4 weeks. How it is done: The endothelial dysfunction is evaluated by determining the damage to the gastrointestinal mucosa, the hepatic damage and blood hypertension induced by administration of L-NAME.
The animals (rats) are divided in groups as herein below shown. The group receiving L-NAME is treated for 4 weeks with said compound dissolved at a concentration of 400 mg/liter in drinking water. The following groups are constituted (No. 10 animals for group):
• 1° group: only carrier (aqueous suspension 1% w/v of carboxymethylcellulose, dose: 5 ml/Kg when the drug is administered by os, physiologic solution when administered parenterally), • 2° group: carrier+L-NAME, B) Groups Administered with the Drug: • 3° group: carrier+drug, • 4° group: carrier+drug+L-NAME.
The administration routes are those known for the drug, and can be the oral or subcutaneous, intraperitoneal, intravenous or intramuscular route. […] The drug is administered once a day for 4 weeks.
At the end of the four weeks treatment access to water is prevented and after 24 hours the animals are sacrificed.
One hour before the sacrifice blood-pressure is determined, and a blood pressure increase is taken as an evaluation of the damage to vascular endothelium. […] The hepatic damage is determined by evaluation of the glutamic-pyruvic transaminase (GPT increase) after sacrifice.
Test 3—experimental in vivo model with N^w-nitro-L-arginine-methyl ester (L-NAME): gastric tolerability (gastrointestinal damage incidence), hepatic (GPT dosage, glutamic-pyruvic transaminase) and cardiovascular (blood pressure) of some drugs screened as precursors of the compounds of the invention.
The endothelial dysfunction is evaluated by determining the damage induced by L-NAME administration to the gastrointestinal mucosa, the hepatic damage (GPT increase), and the vascular endothelium or cardiovascular damage as blood hypertension.
The animals (rats, average weight 200 g) are divided in groups as herein below described. The group receiving L-NAME is treated for 4 weeks with said compound dissolved at the concentration of 400 mg/liter in drinking water. The following groups (No. 10 animals for group) are constituted:
• 1° group: treatment: only carrier (aqueous suspension 1% w/v of carboxymethylcellulose, dose: 5 ml/Kg when the drug is administered by os, physiologic solution when by parenteral route), • 2° group: treatment: carrier+L-NAME, B) Groups Treated with the Drug: • 3° group: treatment: carrier+drug, • 4° group: treatment: carrier+drug+L-NAME.
Each drug is administered once a day for 4 weeks.
The maximum tolerated dose of the drug being administered to the animals is determined by evaluating, in a separate dose scaling up experiment on untreated animals, the appearance in the animals of symptoms such as enteropathy, diarrhoea, depression, tremor, sedation.
At the end of the four weeks access to water is prevented and after 24 hours the animals are sacrificed.
One hour before the sacrifice blood pressure is determined and a blood pressure increase is taken as an indication of a damage being occurred to vascular endothelium.
The hepatic damage is determined by evaluation after the sacrifice of the glutamic-pyruvic transaminase (GPT increase).
The % gastric lesions have been determined as in Test 1.

Data set [3] relates to gastrointestinal mucosa. As to conditions: male, Wistar, rat, in vivo, 6 h. On the procedure: Gastric lesions induced by administration of the compounds of the invention in the confront of the corresponding drug precursor.
The animals have been sacrificed 6 hours after the administration. The gastrointestinal mucosa has been removed and inspected. The incidence of the gastrointestinal damage has been evaluated as described in experiment F1.

For data set [4], the system named is gastrointestinal mucosa. Conditions: rats; for Gastro-enteropathy (% incidence) without NEM: maximum tolerated dose. How it is done: The animals (rats) are distributed in the following groups (no. 10 animals for group):
• 1° group: treatment: only carrier (aqueous suspension 1% w/v of carboxymethylcellulose, dose: 5 ml/Kg when the drug is administered by os, or a physiologic solution when parenterally administered, i.e. by subcutaneous, intraperitoneal, intravenous or intermuscular route), • 2° group: treatment: carrier as above defined+NEM, B) Groups Treated with the Drug: • group I: treatment: carrier+drug, • group II: treatment: carrier+drug+NEM.
The administration routes are those known for the drug, and can be the oral or subcutaneous, intraperitoneal, intravenous or intramuscular route.
The animals are sacrificed after 24 hours and then one proceeds to the evaluation of the damage to the gastrointestinal mucosa.
Test 1—experimental model in vivo with N-ethylmaleimide (NEM): study of the gastric tolerability of some drugs screened as precursors of the compounds of the invention.
The animals (rats, weight about 200 g) are distributed in the following groups (No. 10 animals for group):
• 1° group: treatment: only carrier (aqueous suspension 1% w/v of carboxymethylcellulose, dose: 5 ml/Kg when the drug is administered by os, physiologic solution when by parenteral route), • 2° group: treatment: carrier+NEM, B) Groups Administered with Each Drug: • group I: treatment: carrier+drug, • group II: treatment: carrier+drug+NEM.
The drug is administered one hour later, in suspension in the carrier. Animals are sacrificed after 24 hours and evaluation of the damage to the gastrointestinal mucosa is made by counting the number of rats, inside each group, with lesions to the stomach at a visual inspection. The total number of said rats is then divided by the total number of rats of the group and multiplied by 100.

For the molecule `COc1cccc2c1C(=O)c1c(O)c3c(c(O)c1C2=O)C[C@@](O)(C(=O)CO)C[C@@H]3O[C@H]1C[C@H](N)[C@H](O)[C@H](C)O1` [Doxorubicin, doxorubicin], the activity at 100 µM in data set [1] was determined as 94%. For the same molecule, in data set [2], the “Blood pressure % without L-NAME” value is 120%, the “GPT % without L-NAME” value is 195% and the “Gastroenteropathy % without L-NAME” value came to 30%.
In the data set on gastrointestinal mucosa [3], `O=C(CCCO[N+](=O)[O-])Nc1c2c(nc3ccccc13)CCCC2` [Example 11] came in with a Gastropathy % incidence of 20%.
As to `CC1(C)S[C@@H]2[C@H](NC(=O)[C@H](N)c3ccccc3)C(=O)N2[C@H]1C(=O)O` [ampicilline], the “inhibition of apoptosis induced by CIP (in words, p<0.01)” value (“inhibition … (in words, p<0.01)” for short) in data set [1] is listed as “do not significantly inhibit apoptosis”.
As for enalapril, in data set [1], the “inhibition … (in words, p<0.01)” value was “do not significantly inhibit apoptosis” and the “Apoptosis % with respect to the controls treated only with CIP” value (“Apoptosis %” below) is reported as 80%.
On to `COc1ccc2c(c1)c(CC(=O)O)c(C)n2C(=O)c1ccc(Cl)cc1` [Indomethacin], for which, in the data set on gastrointestinal mucosa [4] (24 hours), the “Gastro-enteropathy (% incidence) without NEM” value is listed as 0%. Further, the “inhibition … (in words, p<0.01)” value in data set [1] is listed as “not significantly different with respect to that of the controls”; in data set [1] (listed as indomethacin), “do not significantly inhibit apoptosis”.
In the case of `Nc1nc2c(ncn2COCCO)c(=O)[nH]1` [Acyclovir, aciclovir], in data set [1], the “inhibition … (in words, p<0.01)” value is “do not significantly inhibit apoptosis” and the “Apoptosis %” value amounted to 95%.
With `O=C(O)COCCN1CCN(C(c2ccccc2)c2ccc(Cl)cc2)CC1` (stereo not drawn) [Cetirizine, cetirizine], the “inhibition … (in words, p<0.01)” value in data set [1] is on record as “do not significantly inhibit apoptosis”.
In turn, `O=C(CCCO[N+](=O)[O-])NCCCC(O)(P(=O)(O)O)P(=O)(O)O` [Example 4, [4-[4-(nitroxy)butyroyl]amino-1-hydroxybutylidene]biphosphonic acid] gave a Gastropathy % incidence with gastrointestinal mucosa [3] of 10%.
`COC(=O)[C@H](c1ccccc1Cl)N1CCc2sccc2C1` [Clopidogrel]: in data set [1], the “inhibition … (in words, p<0.01)” value was “do not significantly inhibit apoptosis” and the “Apoptosis %” value turned out to be 110%.
Turning to `CCC(C)(C)C(=O)O[C@H]1C[C@@H](C)C=C2C=C[C@H](C)[C@H](CCC3CC(O)CC(=O)O3)[C@H]21` (stereo partly drawn) [Simvastatin, simvastatine], the activity at 100 µM in data set [1] was determined as 72%.
Take `CCCCC(C)(O)C/C=C/[C@H]1[C@H](O)CC(=O)[C@@H]1CCCCCCC(=O)OC` (mixture of isomers) [Misoprostol]: the “Gastro-enteropathy (% incidence) without NEM” value in the data set with gastrointestinal mucosa [4] (24 hours) stood at 0%. Besides, in data set [2], the “Blood pressure % without L-NAME” value stood at 100%, the “GPT % without L-NAME” value came out at 100% and the “Gastroenteropathy % without L-NAME” value was found to be 0%.
Consider salbutamol, for which, in data set [1], the “inhibition … (in words, p<0.01)” value was “do not significantly inhibit apoptosis” and the “Apoptosis %” value is 90%.
In the data set on gastrointestinal mucosa [3], `Nc1c(Br)cc(Br)cc1CN[C@H]1CC[C@H](OC(=O)CCCO[N+](=O)[O-])CC1` [Example 3, 4-(nitroxy)butyric acid 4-[(2-amino-3,5-dibromophenyl)methylamino] trans cyclohexyl ester] showed a Gastropathy % incidence of 10%.
In the case of `NC(=O)c1cccnc1` [Nicotinamide], the “inhibition … (in words, p<0.01)” value in data set [1] was “do not significantly inhibit apoptosis”.
`Nc1c(Br)cc(Br)cc1CN[C@H]1CC[C@H](O)CC1` [Ambroxol, ambroxol]: the “Gastro-enteropathy (% incidence) with NEM” value in the data set with gastrointestinal mucosa [4] (NEM 25 mg/kg s.c. one hour before drug, 24 hours) was 80%. Besides, in the data set with gastrointestinal mucosa [4] (NEM 25 mg/kg s.c., drug at maximum tolerated dose), the “gastrointestinal damages / gastric lesions in rats treated with NEM + drug (in words)” value is recorded as “showed gastric lesions”. In addition, in the data set on gastrointestinal mucosa [4] (24 hours), the “Gastro-enteropathy (% incidence) without NEM” value worked out at 0%. Further, in data set [1], the “inhibition … (in words, p<0.01)” value is listed as “inhibit apoptosis”. The molecule also had a Gastropathy % incidence in the data set with gastrointestinal mucosa [3] of 60%.
As for `O=C(O)Cc1ccccc1Nc1c(Cl)cccc1Cl` [Diclofenac, diclofenac], in the data set with gastrointestinal mucosa [3], the Gastropathy % incidence was found to be 70%.
As for `Nc1ccc(O)c(C(=O)O)c1` [Mesalamine], in the data set on gastrointestinal mucosa [4] (24 hours), the “Gastro-enteropathy (% incidence) without NEM” value is listed as 0%. Further, in data set [1], the “inhibition … (in words, p<0.01)” value is recorded as “inhibit apoptosis; also recorded: inhibits the apoptosis induced by CIP”.
Turning to `COc1ccc2[nH]c([S+]([O-])Cc3ncc(C)c(OC)c3C)nc2c1` (stereo not drawn) [Omeprazol], in the data set on gastrointestinal mucosa [4] (24 hours), the “Gastro-enteropathy (% incidence) without NEM” value is 0%. In data set [1], the “inhibition … (in words, p<0.01)” value is listed as “do not significantly inhibit apoptosis”. For the same molecule, in data set [2], the “Blood pressure % without L-NAME” value turned out to be 100%, the “GPT % without L-NAME” value is reported as 100% and the “Gastroenteropathy % without L-NAME” value stood at 0%.
